By solubility is commonly meant the dissolved amount per volume that the medium holds.

≈ marks a conversion by molar mass, not a printed value. Entries after “also recorded” stand apart in the source; their conditions may differ. Structures can show the parent of a compound that is named as a salt. Where two headings read alike, the source gives them in different places. Marks after values point to notes of the source that are not given here.

Here are results for four compounds from US20240208963A1, “CRYSTALLINE MELANOCORTIN SUBTYPE-2 RECEPTOR (MC2R) ANTAGONIST” (Crinetics Pharmaceuticals, Inc., priority 2022, published 2024).

Data set [1] is described as follows: Solubility of solid state forms in solvents (gravimetric or solvent addition). The format is physicochemical. As to the method:
The solubility of certain solid state forms of Compound I was determined in various solvents by either gravimetric solubility or solvent addition.
About 25 mg of compound was weighed into vials. Approximately 5 vol. (0.125 mL) of solvent was added to the solids and the mixtures stirred at the designated temperature (RT or 50° C.). Solutions were noted and an additional 0.125 mL of solvent was added to the slurries. […] If a thicker slurry was noted, 0.25 mL of solvent was added (total volume 0.5 mL). If a thick slurry was again noted, an additional 0.25 mL of solvent was added (total volume 0.75 mL). After stirring for 2 days, the slurries were centrifuged, the supernatant was collected into preweighed vials, and the solvent evaporated at 50° C. (ambient pressure) without stirring. The vials containing the solid residues were dried in a vacuum oven at 50 C, 10^−2-10^−1 Torr, for 3 h before weighing again to determine the mass of solid that was dissolved in the supernatant (i.e. mg solid/mL solvent).
About 20 mg of compound was weighed into vials. Solvent was added in aliquots and stirred at the designated temperature until complete dissolution was observed. This measurement gave a solubility range.

Data set [2] is described as follows: Salt screening XRPD stages: drying and overnight humidity exposure. As to conditions: for Form stability upon drying (XRPD): dried under vacuum at 50° C. for at least 3 h.
Description: XRPD analysis is typically done in three stages: 1) Wet: XRPD of the wet cake is done for all samples whenever solids appropriate for sampling were observed. 2) Dry: Unique solids are then left on XRPD plates and dried under vacuum at 50° C. for at least 3 h. XRPD of unique dry solids are then collected. 3) Humid: Solids are then exposed to >95% relative humidity overnight and XRPD on resulting solids is collected. The humid environment is generated by placing a beaker of saturated potassium sulfate in water in a sealed container. This procedure is not carried out for any amorphous solids obtained. All XRPD patterns are compared to counter ion XRPD patterns and known free molecule patterns.
A qualitive humidity exposure test was performed by exposing approximately 10 mg of the maleate to 80% RH overnight.
The nature of data set [3]: Form stability at ambient conditions for one week (XRPD). The format is physicochemical. As to conditions: maleate. From the text: Some of the samples generated in the antisolvent crystallization experiments were mixtures of Pattern B, Pattern C, and Pattern D. These samples were left at ambient conditions for one week, then analyzed again by XRPD.
Pure Pattern B was generated in the antisolvent crystallization with MIBK and heptane. […] The solids were scraped from the XRPD plate and used for simultaneous TGA/DSC analysis. […] After the solids required for the TGA/DSC analysis were transferred to the pan, the remainder of the solids were re-pressed to the XRPD sample plate and analyzed again.

Data set [4] in a line: Solubility in simulated fluids and water. The format is physicochemical. As to conditions: 37° C., 30 min. As for the experimental part:
Calibration samples for solubility in simulated fluids were prepared with freebase Compound I.
Solubility in simulated fluids were studied with the mandelate and maleate solids. The simulated fluids FaSSIF (fasted-state intestinal), FaSSGF (fasted-state gastric), and FeSSIF (fed-state intestinal) were removed from the refrigerator, warmed to room temperature, and the pH of each was measured. Between 1.9 and 2.0 mg of each salt was weighed into four vials and 1 mL of each fluid was added, including water. Stir bars (10 mm) were added to the vials and the vials were stirred at 37° C. After 30 mi (mandelate samples) or 1 h (maleate samples), the pH of each solution was measured, then 400 μL of each was removed and syringe filtered with 0.45 µm syringe filters. Approximately 300 μL of the recovered filtrate was diluted 5× with diluent and injected for HPLC analysis. The remainder of the samples in the vials were allowed to stir overnight. After 24 h stirring at 37° C., samples were filtered and diluted as before, and injected for analysis.

Data set [5] in a line: Stability of crystalline forms at 40° C. and 75% relative humidity (XRPD, HPLC purity).
Description: Approximately 10 mg of the Crystalline Pattern D of Compound I Maleate, 20 mg of the Crystalline Pattern C of Compound I Maleate, and 10 mg of the Crystalline Pattern E of Compound I Mandelate were weighed into open 4 mL vials that were placed into a 20 mL vial containing a saturated NaCl solution. The vial was sealed and kept at 40° C. for 7 days, creating an atmosphere at 75% relative humidity in the system. After 7 days, the materials were sampled and plated for XRPD analysis.
The stability test was repeated on Patterns C and D of Compound I Maleate for 11 days.
Data set [6] can be described thus: Dynamic vapor sorption (DVS). The format is physicochemical. As for the experimental part: DVS was performed using a DVS Intrinsic 1. The sample (20-25 mg) was loaded into a sample pan, suspended from a microbalance and exposed to a humidified stream of nitrogen gas. The sample was held for a minimum of 5 min at each level and only progressed to the next humidity level if there was <0.002% change in weight between measurements (interval: 60 s) or 240 min had elapsed. The following program was used: • 1. Equilibration at 50% RH • 2. 50% to 2%. (50%, 40%, 30%, 20%, 10%, and 2%) • 3. 2% to 95% (2%, 10%, 20%, 30%, 40%, 50%, 60%, 70%, 80%, 90%, and 95%) • 4. 95% to 2% (95%, 80%, 70%, 60%, 50%, 40%, 30%, 20%, 10%, and 2%) • 5. 2% to 50% (2%, 10%, 20%, 30%, 40%, and 50%)

[7] abbreviates: 40° C., 75% relative humidity, 7 days.

In the case of `CCOc1ccccc1-c1ccc(N2CCN(C(=O)C3(C(F)(F)F)CCC3)C[C@H]2CC)c(C(=O)N[C@@H]2CN3CCC2CC3)n1` [Compound I Maleate, N-[(3S)-1-azabicyclo[2.2.2]octan-3-yl]-6-(2-ethoxyphenyl)-3-[(2R)-2-ethyl-4-[1-(trifluoromethyl)-cyclobutanecarbonyl]piperazin-1-yl]pyridine-2-carboxamide maleate], the solubility is reported as 34 mg/mL in data set [1] (EtOAc, 50° C., maleate); 21 mg/mL in data set [1] (EtOAc, RT, maleate); more than 200 mg/mL in data set [1] (EtOH, RT, maleate); 13 mg/mL in data set [1] (IPAc, 50° C., maleate); 8 mg/mL in data set [1] (IPAc, RT, maleate); more than 200 mg/mL in data set [1] (MEK, RT, maleate). For the same compound, the solubility in data set [1] (MIBK, 50° C., maleate) is reported as 71 mg/mL; in data set [1] (MIBK, RT, maleate), 49 mg/mL; in data set [1] (MeOH, RT, maleate), more than 200 mg/mL; in data set [1] (MtBE, 50° C., maleate), 4 mg/mL; in data set [1] (MtBE, RT, maleate), 4 mg/mL; in data set [1] (THF, RT, maleate) it was more than 200 mg/mL. Also, the solubility in data set [1] (acetone, RT, maleate) was more than 200 mg/mL; in data set [1] (cyclohexane, 50 °C, organic solvent or mixture, thermodynamic from solid, cyclohexane, 50° C., read-out: Solubility), 3 mg/mL; in data set [1] (cyclohexane, organic solvent or mixture, thermodynamic from solid, cyclohexane, RT, read-out: Solubility), less than 3 mg/mL; in data set [1] (n-heptane, 50° C., maleate) it was 3 mg/mL; in data set [1] (n-heptane, RT, maleate), less than 3 mg/mL. Also, the “Mass gain in qualitative humidity exposure test” value in data set [2] (80% RH overnight, approximately 10 mg) was “No detectable mass gain”.
On to `CCOc1ccccc1-c1ccc(N2CCN(C(=O)C3(C(F)(F)F)CCC3)C[C@H]2CC)c(C(=O)N[C@@H]2CN3CCC2CC3)n1` [Compound I, N-[(3S)-1-azabicyclo[2.2.2]octan-3-yl]-6-(2-ethoxyphenyl)-3-[(2R)-2-ethyl-4-[1-(trifluoromethyl)-cyclobutanecarbonyl]piperazin-1-yl]pyridine-2-carboxamide], for which the solubility in data set [1] (EtOAc, RT, listed as Amorphous free base) is >500^a mg/mL; in data set [1] (EtOH, RT, listed as Amorphous free base), >500^a mg/mL; in data set [1] (IPA:water (1:1 vol.), aqueous with cosolvent or surfactant or cyclodextrin, thermodynamic from solid, IPA:water (1:1 vol.), RT, read-out: Solubility), 167 to 250 mg/mL (≈ 272 to 407 mM); in data set [1] (MIBK, RT, listed as Amorphous free base), >500^a mg/mL; in data set [1] (MtBE, RT, listed as Amorphous free base), >500^a mg/mL; in data set [1] (acetone, RT, listed as Amorphous free base) it was >500^a mg/mL. For the same compound, the solubility in data set [1] (n-heptane, RT, listed as Amorphous free base) is less than 26 mg/mL; in data set [1] (toluene, organic solvent or mixture, thermodynamic from solid, toluene, RT, read-out: Solubility), more than 500 mg/mL. The “Solubility (in words)” value in data set [1] (all solvents tested except heptane and IPA:water (1:1 vol.)) was “freely soluble”; in data set [1] (heptane), “low solubility”.
In the case of `CCOc1ccccc1-c1ccc(N2CCN(C(=O)C3(C(F)(F)F)CCC3)C[C@H]2CC)c(C(=O)N[C@@H]2CN3CCC2CC3)n1.O=C(O)/C=C\C(=O)O` [Pattern B, N-[(3S)-1-azabicyclo[2.2.2]octan-3-yl]-6-(2-ethoxyphenyl)-3-[(2R)-2-ethyl-4-[1-(trifluoromethyl)-cyclobutanecarbonyl]piperazin-1-yl]pyridine-2-carboxamide maleate], the “Form stability upon drying (XRPD)” value in data set [2] is recorded as “mostly converts to Pattern C”. In addition, the “Form conversion by XRPD at ambient conditions” value in data set [3] is listed as “converted to Pattern C; also recorded: some low intensity peaks associated with Pattern C”.
On to “N-[(3S)-1-azabicyclo[2.2.2]octan-3-yl]-6-(2-ethoxyphenyl)-3-[(2R)-2-ethyl-4-[1-(trifluoromethyl)-cyclobutanecarbonyl]piperazin-1-yl]pyridine-2-carboxamide mandelate [mandelate Pattern E]”, for which, in data set [2] (>90% relative humidity overnight), the “Stability after humidity exposure (XRPD, deliquescence)” value is recorded as “no deliquescence or loss of crystallinity”. Also, the “Form stability upon drying (XRPD)” value in data set [2] is “stable”. In addition, the “Sample pH” value is recorded as 1.53 in data set [4] (FaSSGF (initial pH 1.49)), 6.41 in data set [4] (FaSSIF (initial pH 6.35)) and 4.89 in data set [4] (FeSSIF (initial pH 4.83)). Moreover, the “Change by XRPD after storage” value in data set [5] (setting [7]) is listed as “No visible change”. Further, the “Degradation by HPLC purity analysis after storage” value in data set [5] (setting [7]) is given as “no degradation”. Besides, in data set [5] (over a week at 40° C. and 75% RH), the “Stability on storage (in words)” value is listed as “stable”. For the same compound, the “Hygroscopicity (in words)” value in data set [6] (DVS) is “moderately hygroscopic”. Further, in data set [6] (after DVS from 2 to 95% RH), the “Change by XRPD following the DVS analysis” value was “No change”. The “Reversible mass gain (DVS)” value in data set [6] (from 2 to 95% relative humidity) is recorded as 5.68 wt. %. In data set [6] (high humidity), the “Behaviour at high humidity” value is listed as “began to convert to amorphous”.
